The subject of the series is SBP13-30 CHO cells. The series is described as follows: Acquired sensitivity to MTX of plasmid-transfected cells, crystal violet staining. The class given is cell-based, chinese hamster. The settings on record: 9 μM MTX, 0 μg DNA (non-transfected cells). The method, then:
In order to assess the level of expression of the anti-sense DHFR sequence and whether its expression effectively blocks DHFR+ expression i.e. renders the cells more responsive/sensitive to MTX treatment, SBP13-30 CHO cells subjected to transfections with three different plasmid concentrations of adHFR2/Neo 0 (control), 100 and 500 μg plasmid DNA, were grown in the absence (controls) or in the presence of MTX (9 μM). Equal amounts of cells from each of the transfections were plated onto duplicate sets of Petri dishes containing standard CHO culture medium, one set receiving cells treated with MTX and the other set receiving untreated cells. When the cells in the dishes without MTX approached confluent growth, the experiment was terminated and the surviving cells were visualized by staining with crystal violet.
As expected, with 0 μM MTX, heavy staining was observed. The staining was moderate-to-heavy in the 9 μM MTX/0 μg DNA dish. […] Cells transfected with high amounts of plasmid (500 μg plasmid DNA/dish) are more sensitive to MTX than cells transfected with lower amounts of plasmid (100 μg plasmid DNA/dish) or the non-transfected control cells (0 μg plasmid/dish). Thus, it is clear that the anti-sense DHFR plasmid successfully transfected the CHO cells and was expressed in these cells. […] In other words, the greater the DHFR^+ inhibition, the greater the MTX toxicity.

For `CN(Cc1cnc2nc(N)nc(N)c2n1)c1ccc(C(=O)N[C@@H](CCC(=O)O)C(=O)O)cc1` [MTX, methotrexate], the “crystal violet staining of surviving cells” value is reported as “moderate-to-heavy”.

These data come from patent publication US6399377B1, “Use of anti-sense sequences to increase responsiveness to gene amplification” (priority 1999, dated 2002).
